# According to patent EP0642787A2, “Cessation of tobacco use” (ELI LILLY AND COMPANY, priority 1993, dated 1995):
# Legend:
# 5HT1A receptor [1] = experiment: Serotonin syndrome test (antagonism of 8-OH-DPAT-induced signs); format: in vivo, rats; settings: 4 point scale 0-3; for LLR score / FBP score / lower lip retraction (LLR) score / flat body posture (FBP) score: 8-OH-DPAT alone scores 3
# Experimental: Adult male rats are placed singly in clear plastic cages for behavioral observations. Preferably, the cages have metal screen lids and fresh sawdust covering the floor. The animals are adapted to the cages for a short period, and then the compounds to be tested are administered at doses and route determined by the experimenter, based on the probable potency of the test compounds. After 15 minutes, each rat is then given a subcutaneous injection of 0.1 mg/kg of 8-hydroxy-2-dipropylaminotetralin (8-OH-DPAT). Fifteen minutes after administration of the 8-OH-DPAT, the animals are evaluated for evidence of the following signs: reciprocal forepaw treading; Straub tail (rigid or corkscrew); lateral head weaving; hind limb abduction; resting tremor, especially of the head and forepaws; lower-lip retraction; and flat-body posture.
# Those signs are produced by 8-OH-DPAT, and the administration of 5HT1A antagonists is able to block or greatly attenuate the appearance of the signs.
# 5HT1A receptor [2] = experiment: as above; format: in vivo, rats; settings: exception at 1.0 or 10 mg/kg s.c. (dose not specified); 4 point scale 0-3
# 5HT1A receptor [3] = target: 5HT1A receptor (Homo sapiens, UniProt P08908); settings: partial agonist; cited from earlier work
# [4] = 3 mg/kg test compound s.c., then 8-OH-DPAT 0.1 mg/kg s.c.
# Sequence of 5HT1A receptor (Homo sapiens, UniProt P08908) (P08908 whole entry): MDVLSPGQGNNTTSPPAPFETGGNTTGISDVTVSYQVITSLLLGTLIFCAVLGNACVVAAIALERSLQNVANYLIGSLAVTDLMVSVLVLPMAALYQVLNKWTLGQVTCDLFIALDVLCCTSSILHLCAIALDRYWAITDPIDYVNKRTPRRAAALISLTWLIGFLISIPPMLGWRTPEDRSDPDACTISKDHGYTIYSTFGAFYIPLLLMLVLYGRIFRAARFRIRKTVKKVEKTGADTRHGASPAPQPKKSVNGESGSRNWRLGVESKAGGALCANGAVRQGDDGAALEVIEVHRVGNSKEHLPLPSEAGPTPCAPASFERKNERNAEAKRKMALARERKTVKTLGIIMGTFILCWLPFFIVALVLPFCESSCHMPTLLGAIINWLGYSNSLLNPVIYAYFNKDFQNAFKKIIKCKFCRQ
Structure (SMILES),LLR score (5HT1A receptor [1]; 1 mg/kg test compound s.c.),FBP score (5HT1A receptor [1]; 10 mg/kg test compound s.c.),LLR score (5HT1A receptor [1]; 10 mg/kg test compound s.c.),lower lip retraction (LLR) score (5HT1A receptor [1]; [4]),also measured
OC(CN[C@@H]1C[C@H]2CC[C@@H]1C2)COc1cccc2[nH]ccc12 (relative stereo) [(exo)-1-(4-indolyloxy)-3-norbornylamino-2-propanol],≤ 1,≤ 0.5,≤ 1,,FBP score (5HT1A receptor [1]; 1.0 mg/kg test compound s.c.): ≤ 0.5; LLR score at 20 minutes after administration of 8-OH-DPAT (5HT1A receptor [2]): 1.25
"O=C(O)C(=O)O.OC(CNCCCCc1ccccc1)COc1cccc2[nH]ccc12 (stereo not shown) [1-(4-indolyloxy)-3-(4-phenylbutylamino)-2-propanol, oxalate salt]",,1.25,,,"peak LLR score (5HT1A receptor [1]; 10 mg/kg test compound s.c., score quickly declined from its peak): 2"
OC(CNC1CCCCCC1)COc1cccc2[nH]ccc12 (stereo not shown) [1-(4-indolyloxy)-3-cycloheptylamino-2-propanol],≤ 1.75,,0,≤ 1.75,FBP score (5HT1A receptor [1]; doses of 1 mg/kg and above s.c.): below 1
"O=C(O)CCC(=O)O.O[C@@H](CNC1CCCCC1)COc1cccc2[nH]ccc12 [(S)-(-)-1-(4-indolyloxy)-3-cyclohexylamino-2-propanol, butanedioate salt]",,,,completely abolished,flat body posture (FBP) score (5HT1A receptor [1]; 0.3 mg/kg test compound s.c.): below 2; lower lip retraction (LLR) score (5HT1A receptor [1]; 0.3 mg/kg test compound s.c.): below 2; flat body posture (FBP) score (5HT1A receptor [1]; [4]): completely abolished
O=C1CC2(CCCC2)CC(=O)N1CCCCN1CCN(c2ncccn2)CC1 [Buspirone],,,,,antagonistic activity at the 5HT1A receptor (5HT1A receptor [3]): about 30%
